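Method: 48-hour compound exposure of cells in 96-well plates, five concentrations, linear interpolation of endpoints. TGI: concentration producing complete growth inhibition.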
Experiments:
Assay in all cases: NCI anticancer screen, dose series, 48 h
786-0 renal = test system: 786-0 renal
A498 renal = test system: A498 renal
A549 NSCLC = test system: A549 NSCLC
ACHN renal = test system: ACHN renal
BT-549 breast = test system: BT-549 breast
CAKI-1 renal = test system: CAKI-1 renal
CCRF-CEM leukemia = test system: CCRF-CEM leukemia
COLO 205 colon = test system: COLO 205 colon
DU-145 prostate = test system: DU-145 prostate
EKVX NSCLC = test system: EKVX NSCLC
HCC-2998 colon = test system: HCC-2998 colon
HCT-116 colon = test system: HCT-116 colon
HCT-15 colon = test system: HCT-15 colon
HL-60(TB) leukemia = test system: HL-60(TB) leukemia
HOP-62 NSCLC = test system: HOP-62 NSCLC
HOP-92 NSCLC = test system: HOP-92 NSCLC
HS 578T breast = test system: HS 578T breast
HT29 colon = test system: HT29 colon
IGROV1 ovarian = test system: IGROV1 ovarian
K-562 leukemia = test system: K-562 leukemia
KM12 colon = test system: KM12 colon
LOX IMVI melanoma = test system: LOX IMVI melanoma
M14 melanoma = test system: M14 melanoma
MALME-3M melanoma = test system: MALME-3M melanoma
MCF7 breast = test system: MCF7 breast
MDA-MB-231 breast = test system: MDA-MB-231 breast
MDA-MB-435 = test system: MDA-MB-435
MDA-N = test system: MDA-N
MOLT-4 leukemia = test system: MOLT-4 leukemia
NCI-H226 lung = test system: NCI-H226 lung
NCI-H23 lung = test system: NCI-H23 lung
NCI-H460 lung = test system: NCI-H460 lung
NCI-H522 lung = test system: NCI-H522 lung
NCI/ADR-RES ovarian = test system: NCI/ADR-RES ovarian
OVCAR-3 ovarian = test system: OVCAR-3 ovarian
OVCAR-4 ovarian = test system: OVCAR-4 ovarian
OVCAR-5 ovarian = test system: OVCAR-5 ovarian
OVCAR-8 ovarian = test system: OVCAR-8 ovarian
PC-3 prostate = test system: PC-3 prostate
RPMI-8226 leukemia = test system: RPMI-8226 leukemia
RXF 393 renal = test system: RXF 393 renal
SF-268 CNS = test system: SF-268 CNS
SF-295 CNS = test system: SF-295 CNS
SF-539 CNS = test system: SF-539 CNS
SK-MEL-2 melanoma = test system: SK-MEL-2 melanoma
SK-MEL-28 melanoma = test system: SK-MEL-28 melanoma
SK-MEL-5 melanoma = test system: SK-MEL-5 melanoma
SK-OV-3 ovarian = test system: SK-OV-3 ovarian
SN12C renal = test system: SN12C renal
SNB-19 CNS = test system: SNB-19 CNS
SNB-75 CNS = test system: SNB-75 CNS
SR leukemia = test system: SR leukemia
SW-620 colon = test system: SW-620 colon
T-47D breast = test system: T-47D breast
TK-10 renal = test system: TK-10 renal
U251 CNS = test system: U251 CNS
UACC-257 melanoma = test system: UACC-257 melanoma
UACC-62 melanoma = test system: UACC-62 melanoma
UO-31 renal = test system: UO-31 renal

`O=C(Nc1ccccc1C(=O)NCCCO)/C(=C/c1ccccc1O)NC(=O)c1ccccc1` was tested, and the TGI (786-0 renal) was over 89.9 µM, the TGI (A498 renal) was over 100 µM and the TGI (A549 NSCLC) was over 100 µM. It also gave a TGI (ACHN renal) of 97.4 µM, a TGI (BT-549 breast) of 55.7 µM and a TGI (CAKI-1 renal) of over 100 µM. It also gave a TGI (CCRF-CEM leukemia) of over 100 µM, a TGI (COLO 205 colon) of over 100 µM and a TGI (DU-145 prostate) of over 100 µM. For the same compound, the TGI (EKVX NSCLC) was over 100 µM, the TGI (HCC-2998 colon) was over 100 µM and the TGI (HCT-116 colon) was over 75.8 µM. It also gave a TGI (HCT-15 colon) of over 100 µM, a TGI (HL-60(TB) leukemia) of over 100 µM and a TGI (HOP-62 NSCLC) of over 56.5 µM. For the same compound, the TGI (HOP-92 NSCLC) was over 100 µM, the TGI (HS 578T breast) was 77.6 µM and the TGI (HT29 colon) was over 100 µM. The TGI (IGROV1 ovarian) was over 100 µM, the TGI (K-562 leukemia) was over 100 µM and the TGI (KM12 colon) was over 100 µM. For the same compound, the TGI (LOX IMVI melanoma) was over 100 µM, the TGI (M14 melanoma) was over 100 µM and the TGI (MALME-3M melanoma) was over 100 µM. It also gave a TGI (MCF7 breast) of over 100 µM, a TGI (MDA-MB-231 breast) of over 59.3 µM and a TGI (MDA-MB-435) of over 100 µM. The TGI (MDA-N) was over 100 µM, the TGI (MOLT-4 leukemia) was over 100 µM and the TGI (NCI-H226 lung) was over 100 µM. For the same compound, the TGI (NCI-H23 lung) was over 94.5 µM, the TGI (NCI-H460 lung) was over 100 µM and the TGI (NCI-H522 lung) was over 100 µM. For the same compound, the TGI (NCI/ADR-RES ovarian) was 69.1 µM, the TGI (OVCAR-3 ovarian) was over 100 µM and the TGI (OVCAR-4 ovarian) was over 100 µM. The TGI (OVCAR-5 ovarian) was over 100 µM, the TGI (OVCAR-8 ovarian) was over 64.6 µM and the TGI (PC-3 prostate) was over 100 µM. The TGI (RPMI-8226 leukemia) was over 100 µM, the TGI (RXF 393 renal) was over 86.8 µM and the TGI (SF-268 CNS) was over 100 µM. For the same compound, the TGI (SF-295 CNS) was over 75.8 µM, the TGI (SF-539 CNS) was over 63.2 µM and the TGI (SK-MEL-2 melanoma) was over 100 µM. The TGI (SK-MEL-28 melanoma) was over 100 µM, the TGI (SK-MEL-5 melanoma) was over 100 µM and the TGI (SK-OV-3 ovarian) was over 100 µM. It also gave a TGI (SN12C renal) of over 100 µM, a TGI (SNB-19 CNS) of 40.8 µM and a TGI (SNB-75 CNS) of over 83.9 µM. The TGI (SR leukemia) was over 100 µM, the TGI (SW-620 colon) was over 100 µM and the TGI (T-47D breast) was over 100 µM. For the same compound, the TGI (TK-10 renal) was over 100 µM, the TGI (U251 CNS) was over 81.6 µM and the TGI (UACC-257 melanoma) was over 100 µM. For the same compound, the TGI (UACC-62 melanoma) was 60 µM and the TGI (UO-31 renal) was over 31.6 µM.
`CC1(C)C=C(S(=O)(=O)c2ccccc2)Oc2ccccc2O1` was tested, and the TGI (786-0 renal) was over 100 µM, the TGI (A498 renal) was over 100 µM and the TGI (A549 NSCLC) was over 100 µM. For the same compound, the TGI (ACHN renal) was over 100 µM, the TGI (BT-549 breast) was over 100 µM and the TGI (CAKI-1 renal) was over 100 µM. It also gave a TGI (CCRF-CEM leukemia) of over 100 µM, a TGI (COLO 205 colon) of 35.1 µM and a TGI (DU-145 prostate) of over 100 µM. It also gave a TGI (EKVX NSCLC) of 73.4 µM, a TGI (HCC-2998 colon) of 68.5 µM and a TGI (HCT-116 colon) of over 100 µM. It also gave a TGI (HCT-15 colon) of over 100 µM, a TGI (HL-60(TB) leukemia) of 46.2 µM and a TGI (HOP-62 NSCLC) of over 100 µM. The TGI (HOP-92 NSCLC) was 67.5 µM, the TGI (HS 578T breast) was over 100 µM and the TGI (HT29 colon) was over 100 µM. The TGI (IGROV1 ovarian) was over 100 µM, the TGI (K-562 leukemia) was over 100 µM and the TGI (KM12 colon) was over 100 µM. The TGI (LOX IMVI melanoma) was 57.6 µM, the TGI (M14 melanoma) was over 100 µM and the TGI (MALME-3M melanoma) was 75.2 µM. The TGI (MCF7 breast) was over 100 µM, the TGI (MDA-MB-231 breast) was over 100 µM and the TGI (MDA-MB-435) was 48 µM. The TGI (MDA-N) was over 100 µM, the TGI (MOLT-4 leukemia) was 71.9 µM and the TGI (NCI-H226 lung) was over 100 µM. For the same compound, the TGI (NCI-H23 lung) was over 100 µM, the TGI (NCI-H460 lung) was over 100 µM and the TGI (NCI-H522 lung) was over 100 µM. For the same compound, the TGI (NCI/ADR-RES ovarian) was over 100 µM, the TGI (OVCAR-3 ovarian) was over 100 µM and the TGI (OVCAR-4 ovarian) was over 100 µM. The TGI (OVCAR-5 ovarian) was over 100 µM, the TGI (OVCAR-8 ovarian) was over 100 µM and the TGI (PC-3 prostate) was over 100 µM. It also gave a TGI (RPMI-8226 leukemia) of over 100 µM, a TGI (RXF 393 renal) of over 100 µM and a TGI (SF-268 CNS) of over 100 µM. For the same compound, the TGI (SF-295 CNS) was over 100 µM, the TGI (SF-539 CNS) was over 100 µM and the TGI (SK-MEL-2 melanoma) was over 100 µM. For the same compound, the TGI (SK-MEL-28 melanoma) was over 100 µM, the TGI (SK-MEL-5 melanoma) was 28.9 µM and the TGI (SK-OV-3 ovarian) was over 100 µM. For the same compound, the TGI (SN12C renal) was over 100 µM, the TGI (SNB-19 CNS) was over 100 µM and the TGI (SNB-75 CNS) was 82.3 µM. For the same compound, the TGI (SR leukemia) was over 100 µM, the TGI (SW-620 colon) was over 100 µM and the TGI (T-47D breast) was 96.4 µM. The TGI (TK-10 renal) was 36 µM, the TGI (U251 CNS) was over 100 µM and the TGI (UACC-257 melanoma) was over 100 µM. For the same compound, the TGI (UACC-62 melanoma) was over 100 µM and the TGI (UO-31 renal) was 86.2 µM.

Source: PubChem BioAssay (NCI)
